Results reported in US20170095440A1, “METHOD OF TREATING CANINE PANCREATITIS” (CK9, LLC, priority 2014, published 2017).
Entries after “also recorded” stand apart in the source; their conditions may differ.

Experiments:
trypsin = trypsin (Homo sapiens, UniProt P07477); settings: cited from earlier work
[1] = system: dogs with suspected chronic pancreatitis; assay: Serum C-reactive protein before and after treatment, clinical trial; format: in vivo, dog; settings: for Change in serum C-reactive protein, pre- vs post-treatment: methanesulfonate
Method: (§1) Treatment effects on overall health status, quality of life, and clinical signs were also evaluated with serum biochemistry profiles, complete blood counts, and owner questionnaires.
(§2) Dogs were identified by screening current submissions to the Gastrointestinal Laboratory at Texas A&M indicative of pancreatitis (canine pancreas-specific lipase≧400 μg/L) using an immunoassay for measurement of canine pancreas-specific lipase in canine serum known as the spec CPL® Test (IDEXX, Laboratories). A number of potential study participants were directly referred to the investigator by veterinarians, based on positive pet-side SNAP cPL® Test (IDEXX Laboratories, Westbrook, Me., USA) results and concomitant clinical signs. After ascertaining individual suitability of a patient with the referring veterinarian, serum canine pancreas-specific lipase concentration, serum biochemistry profile, and complete blood count were evaluated or re-evaluated 12±4 days after collection of the initial sample submission to the Gastrointestinal Laboratory. Based on the assumption that consecutive canine pancreas-specific lipase elevations indicate chronic pancreatitis, enrollment was offered for patients with canine pancreas-specific lipase concentrations≧400 μg/L, serum triglyceride concentrations below 500 mg/dL, and no indication of hepatic, renal, or other organ disease. […] Owner consent was required prior to phlebotomy and for enrollment into the trial.
(§3) Twelve enrolled dogs received camostat capsules at a dosage of 4 mg/kg q 8 hrs, for a total dose of 12 mg/kg q 24 hrs. […] Individual patients were medicated for between 21 to 31 days.
Blood samples were collected before beginning the treatment and after completion of the treatment period. Complete blood count (red blood cell count, hematocrit, mean corpuscular volume, mean corpuscular hemoglobin, mean corpuscular hemoglobin concentration, differential and absolute white blood cell count, red blood cell count, hemoglobin, platelet estimate, red blood cell morphology, white blood cell morphology, and hemoparasites) was evaluated at the Texas Veterinary Medical Diagnostic Laboratory (TVMDL). A serum chemistry profile with electrolytes (glucose, blood urea nitrogen, creatinine, calcium, phosphorus, albumin, total protein, total bilirubin, alkaline phosphatase, alanine amino transferase, aspartate amino transferase, γ-glutamyl transferase, cholesterol, triglycerides, globuline, sodium, potassium, and chloride) was performed on a SIRRUS analyzer (Stanbio, Boerne, Tex., USA). […]
Pre-treatment and post-treatment results for all diagnostic tests were statistically analyzed using Prism 6 (GraphPad Software, La Jolla, Calif., USA). […]

[2] = system: dogs with suspected chronic pancreatitis; assay: Serum S100A12 before and after treatment, clinical trial; format: in vivo, dog; settings: 8 mg/kg q 8 hrs, n=17
[3] = system: dogs with suspected chronic pancreatitis; assay: Serum TGF-β1 before and after treatment, clinical trial; format: in vivo, dog; settings: for Change in serum TGF-β1, pre- vs post-treatment (paired t-test): methanesulfonate
Method: as §1, §2, §3
(§4) Blood samples were collected before beginning the treatment and after completion of the treatment period. Complete blood count (red blood cell count, hematocrit, mean corpuscular volume, mean corpuscular hemoglobin, mean corpuscular hemoglobin concentration, differential and absolute white blood cell count, red blood cell count, hemoglobin, platelet estimate, red blood cell morphology, white blood cell morphology, and hemoparasites) was evaluated at the Texas Veterinary Medical Diagnostic Laboratory (TVMDL). A serum chemistry profile with electrolytes (glucose, blood urea nitrogen, creatinine, calcium, phosphorus, albumin, total protein, total bilirubin, alkaline phosphatase, alanine amino transferase, aspartate amino transferase, γ-glutamyl transferase, cholesterol, triglycerides, globuline, sodium, potassium, and chloride) was performed on a SIRRUS analyzer (Stanbio, Boerne, Tex., USA). Serum concentrations of cPL (RI: 0-200 μg/L; Spec cPL® IDEXX Laboratories, Westbrook, Me., USA), cTLI (RI: 5.7-45.2 μg/L; Canine TLI DOUBLE ANTIBODY®, Siemens Healthcare Diagnostics, Los Angeles, Calif., USA), cobalamin (RI: 251-908 ng/L), and folate (RI: 7.7-24.4 μg/L; Immulite 2000®, Siemens Healthcare Diagnostics Inc., Deerfield, Ill., USA), canine specific C-reactive protein (RI: 0-7.6 mg/L, Tridelta Development Limited, Maynooth, CO. Kildare, Ireland), S100A12 (RI: 56-331 μg/L, Gastrointestinal Laboratory in-house radioimmunoassay), and TGF-β1 (RI: 38-72 ng/mL; Quantikine® ELISA, R&D Systems, Minneapolis, […]., USA) were performed at the Gastrointestinal Lab at Texas A&M University.
(§5) Pre-treatment and post-treatment results for all diagnostic tests were statistically analyzed using Prism 6 (GraphPad Software, La Jolla, Calif., USA). The D'Agostino-Pearson omnibus test was used to evaluate all datasets for Gaussian distribution. Groups were compared using a paired t-test for normally-distributed data sets and a Wilcoxon matched-pairs test when Gaussian distribution could not be assumed. Mean values and standard deviation are reported for data sets with Gaussian distribution. Median and minimum/maximum values are reported for data sets where Gaussian distribution could not be assumed. The significance threshold was set at p=0.05.

plasmin = plasmin (Homo sapiens, UniProt P00747); settings: cited from earlier work
Chain of plasmin (P00747 581-810 limits assumed, species assumed): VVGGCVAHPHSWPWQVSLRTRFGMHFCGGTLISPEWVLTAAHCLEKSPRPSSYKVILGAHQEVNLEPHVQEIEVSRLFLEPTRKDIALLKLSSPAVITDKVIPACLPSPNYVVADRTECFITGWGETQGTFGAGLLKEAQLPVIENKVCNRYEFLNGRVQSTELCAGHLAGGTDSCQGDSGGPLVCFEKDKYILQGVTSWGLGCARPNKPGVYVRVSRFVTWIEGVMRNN
Chain of plasmin (P00747 97-580 partner limits assumed, species assumed): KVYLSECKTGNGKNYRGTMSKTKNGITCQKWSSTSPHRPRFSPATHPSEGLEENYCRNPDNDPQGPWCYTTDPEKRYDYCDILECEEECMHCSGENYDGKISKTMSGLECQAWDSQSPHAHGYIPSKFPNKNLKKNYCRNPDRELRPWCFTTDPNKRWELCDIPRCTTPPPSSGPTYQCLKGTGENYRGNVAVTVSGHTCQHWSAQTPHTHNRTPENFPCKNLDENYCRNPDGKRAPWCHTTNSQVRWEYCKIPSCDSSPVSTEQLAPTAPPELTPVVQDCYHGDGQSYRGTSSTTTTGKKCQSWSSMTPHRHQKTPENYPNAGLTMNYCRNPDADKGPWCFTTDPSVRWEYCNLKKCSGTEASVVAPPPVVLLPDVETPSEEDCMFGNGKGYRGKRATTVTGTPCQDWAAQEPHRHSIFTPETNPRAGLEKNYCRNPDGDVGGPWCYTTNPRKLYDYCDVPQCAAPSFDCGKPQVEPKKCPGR

rats = settings: cited from earlier work
[4] = system: dogs with suspected chronic pancreatitis; assay: Adverse drug reactions, complete blood count and serum biochemistry profile, clinical trial; format: in vivo, dog
Method: as §1, §3
Patients were treated at home and their overall health was monitored by their owners and the referring physician.
as §4, §5

[5] = system: dogs with suspected chronic pancreatitis; assay: Serum C-reactive protein before and after treatment, clinical trial; format: in vivo, dog; settings: 8 mg/kg q 8 hrs, n=17
[6] = all treated dogs combined, n=29, trend towards a decrease

SMILES: CN(C)C(=O)COC(=O)Cc1ccc(OC(=O)c2ccc(NC(=N)N)cc2)cc1 [Camostat Mesilate, N,N-dimethylcarbamoylmethyl-4-(4-guanidinobenzoyloxy)phenylacetate methanesulfonate]
- Anti-trypsin activity (trypsin): pronounced anti-trypsin
- Change in serum C-reactive protein, pre- vs post-treatment ([1]; 4 mg/kg q 8 hrs, n=12): no significant difference; also recorded: did not change significantly
- Serum C-reactive protein concentration post-treatment (median) ([1]; 4 mg/kg q 8 hrs, n=12, pre-treatment median 0.8, post range 0.0-9.4, p=0.1543): 0.6 mg/L
- Serum C-reactive protein concentration post-treatment (median) ([1]; all treated dogs combined, n=29, pre-treatment median 0.2, p=0.0595): 0.1 mg/L
- Change in serum C-reactive protein, pre- vs post-treatment [1, 6]: no statistically significant difference; also recorded: did not lead to any significant changes
- Change in serum S100A12, pre- vs post-treatment ([2]; methanesulfonate): no significant difference; also recorded: did not change significantly
- Serum S100A12 concentration post-treatment (median) ([2]; pre-treatment median 147, post range 58-746, p=0.8176): 148 µg/L
- Change in serum TGF-β1, pre- vs post-treatment (paired t-test) ([3]; 4 mg/kg q 8 hrs, n=12): no significant difference; also recorded: did not change significantly
- Serum TGF-β1 concentration post-treatment (mean) ([3]; 4 mg/kg q 8 hrs, n=12, pre-treatment mean 45, post SD ±8, p=0.3679): 43 ng/mL
- Change in serum TGF-β1, pre- vs post-treatment (paired t-test) ([3]; 8 mg/kg q 8 hrs, n=17): no significant difference; also recorded: did not change significantly
- Serum TGF-β1 concentration post-treatment (mean) ([3]; 8 mg/kg q 8 hrs, n=17, pre-treatment mean 47, post SD ±12, p=0.1686): 40 ng/mL
- Serum TGF-β1 concentration post-treatment (mean) ([3]; all treated dogs combined, n=29, pre-treatment mean 46, post SD ±11, p=0.0986): 41 ng/mL
- Change in serum TGF-β1, pre- vs post-treatment (paired t-test) [3, 6]: no statistically significant difference; also recorded: did not lead to any significant changes
- Anti-plasmin activity (plasmin): anti-plasmin activity
- Clinical signs up to 30 minutes postdose (rats; 1300 mg/kg/day): preening and a slight decrease in locomotor activity
- Body weight gain (rats; 550 and 1300 mg/kg/day): suppressed
- Clinical signs immediately after dosing (rats; all treated groups: 100, 235, 550, 1300 mg/kg/day, 90 and 180 days): hypersalivation
- Adverse drug reactions ([4]; 4 mg/kg q 8 hrs, 12 dogs, reported in two dogs): increased flatulence
- Adverse drug reactions ([4]; 8 mg/kg q 8 hrs, 17 dogs, each sign in one dog, methanesulfonate): pruritus in one front paw; also recorded: increased flatulence
- Complete blood count and serum biochemistry parameters, pre- vs post-treatment ([4]; all treated dogs): no statistically significant differences
- Increase in serum aspartate amino transferase activity after treatment ([4]; another individual dog): 6 fold
- Side effects overall ([4]; both dosages (12 or 24 mg/kg q d), 26±5 days): very mild side effects
- Other clinical signs suggestive of an adverse drug reaction ([4]; either group (4 or 8 mg/kg q 8 hrs)): No other clinical signs suggestive of an adverse drug reaction were observed
- Increase in serum γ-glutamyl transferase activity after treatment ([4]; one individual dog): 35 fold
- Increase in aspartate amino transferase activity after treatment ([4]; one individual dog (same dog as the γ-glutamyl transferase increase)): 6 fold
- Change in serum C-reactive protein, pre- vs post-treatment ([5]; methanesulfonate): no significant difference; also recorded: did not change significantly
- Serum C-reactive protein concentration post-treatment (median) ([5]; pre-treatment median 0.1, post range 0.1-6.8, p=0.25): 0.1 mg/L
